34 molecules from patent US20140113934A1, “HETEROCYCLIC COMPOUNDS FOR TREATING HELMINTH INFECTIONS” (E I DU PONT DE NEMOURS AND COMPANY, priority 2011, published 2014) can be followed below.

In general, mortality refers to the share of the test organisms that died. A higher mortality goes with a strong lethal effect.

The test system of assay [1] is Haemonchus contortus. Briefly: Test B: Haemonchus contortus burdens in orally infected mice after gavage of test compound. It is filed as in vivo. To be noted: mice infected orally with 600 L3 Haemonchus contortus larvae; gavage 10.0 mg/kg on day 0; burdens on day 5 relative to vehicle-dosed controls. As for the experimental part:
For evaluating control of the barber pole worm (Haemonchus contortus), mice were each infected orally with 600 L3 Hlaemonchus contortus larvae on Day −3. On day 0, the infected mice were gavaged with a test compound (n=1) in a propylene glycol/glycerol formal solution at the rate of 10.0 mg/kg body weight. On day 5, the mice were euthanized and evaluated for Haemonchus contortus burdens relative to the vehicle-dosed controls. The range of means for the number of Haemonchus contortus in the various tests in which these compounds were studied was 55-184.

The test system of assay [2] is Haemonchus contortus. In words: Test A: control of barber pole worm, eggs in culture media, mortality after 120 hours (L3 stage). Format: cell-based. As for the experimental part: For evaluating control of the barber pole worm (Haemonchus contortus), a test compound was solubilized in culture media (Earle's Balanced Salt Solution) containing Haemonchus contortus eggs to obtain a final test compound concentration of 2.0 ppm. The test unit was evaluated for mortality 120 hours later after which the eggs had hatched and had advanced to the L3 stage.

As for “4-(2-chloro-4-cyanophenoxy)-N-(quinolinylmethyl)benzenesulfonamide [Compound 15]”, the “% Efficacy” value in the assay with Haemonchus contortus [1] was found to be 79%. The same measure, in the same setting: the result for `O=S(=O)(NCc1ccnc2ccccc12)c1ccc(C(F)c2ccccc2)cc1` (racemic) [Compound 76] reads 87%. In the case of `N#Cc1c(Cl)cccc1Oc1ccc(S(=O)(=O)NCc2ccnc3ccccc23)cc1` [Compound 2, 4-(3-chloro-2-cyanophenoxy)-N-(4-quinolinylmethyl)benzenesulfonamide], in the assay with Haemonchus contortus [1], the “% Efficacy” value stood at 76%. Further, the mortality at 2 ppm in the assay with Haemonchus contortus [2] turned out to be 100%. In the same order, the values of `O=S(=O)(NCc1ccnc2ccccc12)c1ccc(Cc2ccccc2)cc1` [Compound 5, 4-(phenylmethyl)-N-(4-quinolinylmethyl)benzenesulfonamide] are 69% and 100%.

Take `O=S(=O)(NCc1ccnc2ccccc12)c1ccc(OCc2ccc(Cl)cc2Cl)cc1` [Compound 7]: the “% Efficacy” value with Haemonchus contortus [1] was determined as 61%. With `N#Cc1ccc(Oc2ccc(S(=O)(=O)NCc3ccnc4ccccc34)cc2)cc1` [Compound 9], the “% Efficacy” value in the assay on Haemonchus contortus [1] is recorded as 72%. On to `COC(=O)c1ccccc1Oc1ccc(S(=O)(=O)NCc2ccnc3ccccc23)cc1` [Compound 16, methyl 2-[4-[[(4-quinolinylmethyl)amino]sulfonyl]phenoxy]benzoate], for which the mortality at 2 ppm with Haemonchus contortus [2] turned out to be 100%. `N#Cc1cccc(Oc2ccc(S(=O)(=O)NCc3ccnc4ccccc34)cc2)c1` [Compound 23]: the “% Efficacy” value with Haemonchus contortus [1] was 54%. Take `COC(=O)c1ccc(Oc2ccc(S(=O)(=O)NCc3ccnc4ccccc34)cc2)c(Cl)c1` [Compound 27]: in the assay with Haemonchus contortus [1], the “% Efficacy” value is given as 78%. Same read-out and setting: the result for `O=S(=O)(NCc1ccnc2ccccc12)c1ccc(C#Cc2ccccc2)cc1` [Compound 28] reads 62%.

`N#Cc1cc(Br)ccc1Oc1ccc(S(=O)(=O)NCc2ccnc3ccccc23)cc1` [Compound 31]: the “% Efficacy” value in the assay on Haemonchus contortus [1] is recorded as 66%.

As to `O=S(=O)(NCc1ccnc2ccccc12)c1ccc(COc2ccc(Cl)cc2)cc1` [Compound 34], the “% Efficacy” value in the assay on Haemonchus contortus [1] amounted to 71%.

For `O=S(=O)(NCc1ccnc2ccccc12)c1ccc(S(=O)(=O)c2ccccc2)s1` [Compound 36], the mortality at 2 ppm in the assay on Haemonchus contortus [2] was found to be 100%. On the same count and under the same terms, the value for `O=S(=O)(NCc1ccnc2ccccc12)c1ccc(COc2ccccc2)cc1Cl` [Compound 37] was 100%. Take `O=S(=O)(NCc1ccnc2ccccc12)c1ccc(CCc2ccccc2)cc1` [Compound 38]: in the assay with Haemonchus contortus [1], the “% Efficacy” value is on record as 75%. In the assay with Haemonchus contortus [2], `O=S(=O)(NCc1ccnc2ccccc12)c1cccc(OCc2ccccc2)c1` [Compound 40] showed a mortality at 2 ppm of 100%.

On to `N#Cc1ccccc1Oc1ccc(S(=O)(=O)NCc2ccnc3ccccc23)cn1` [Compound 41], for which the mortality at 2 ppm in the assay with Haemonchus contortus [2] worked out at 100%. The same measure, in the same setting: the result for `O=S(=O)(NCc1ccnc2ccccc12)c1cccc(COc2ccc(Cl)cc2Cl)c1` [Compound 44] reads 100%; that for `O=S(=O)(NCc1ccnc2ccccc12)c1cccc(COc2ccccc2)c1` [Compound 46], 100%. Take `CNC(=O)c1ccc(Oc2ccc(S(=O)(=O)NCc3ccnc4ccccc34)cc2)cc1` [Compound 51]: in the assay on Haemonchus contortus [1], the “% Efficacy” value was found to be 74%. With `O=C(Nc1ccc(S(=O)(=O)NCc2ccnc3ccccc23)cc1)c1ccccc1` [Compound 53], the “% Efficacy” value in the assay on Haemonchus contortus [1] came to 61%.

For `O=C(Nc1ccc(S(=O)(=O)NCc2ccnc3ccccc23)cc1)c1ccccc1Cl` [Compound 56], the “% Efficacy” value in the assay with Haemonchus contortus [1] turned out to be 78%. Still for that read-out and setting: the value for `O=S(=O)(NCc1ccnc2ccccc12)c1ccc(Cc2ccc(F)cc2)cc1` [Compound 59] was 86%. As for `O=S(=O)(NCc1ccnc2ccccc12)c1ccc(Cc2ccc(F)cc2F)cc1` [Compound 60], the “% Efficacy” value in the assay on Haemonchus contortus [1] came out at 76%. On to `O=S(=O)(NCc1ccnc2ccccc12)c1cccc(Cc2ccccc2)c1` [Compound 64], for which the “% Efficacy” value with Haemonchus contortus [1] was determined as 70%. This molecule gave a mortality at 2 ppm with Haemonchus contortus [2] of 100%.

As for `COc1ccccc1C(=O)Nc1ccc(S(=O)(=O)NCc2ccnc3ccccc23)cc1` [Compound 69], the “% Efficacy” value in the assay with Haemonchus contortus [1] was found to be 90%. Regarding `O=S(=O)(NCc1ccnc2ccccc12)c1ccc(Nc2ccccc2)cc1` [Compound 70], in the assay with Haemonchus contortus [1], the “% Efficacy” value came to 89%.

In the assay with Haemonchus contortus [2], `O=S(=O)(NCc1ccnc2ccccc12)c1ccc(C#Cc2ccc(Cl)cc2Cl)s1` [Compound 73] had a mortality at 2 ppm of 100%. With `O=S(=O)(NCc1ccnc2ccccc12)c1ccc(C#Cc2ccccc2)s1` [Compound 74], the “% Efficacy” value in the assay on Haemonchus contortus [1] was found to be 60%. The molecule also gave a mortality at 2 ppm in the assay on Haemonchus contortus [2] of 100%. As to `O=S(=O)(NCc1ccnc2ccccc12)c1ccc(C#Cc2ccccc2Cl)s1` [Compound 75], in the assay with Haemonchus contortus [2], the mortality at 2 ppm was 100%. `O=S(=O)(NCc1ccnc2ccccc12)c1ccc(Cc2ccccc2)s1` [Compound 80]: the “% Efficacy” value with Haemonchus contortus [1] is 80%. The molecule also gave a mortality at 2 ppm in the assay with Haemonchus contortus [2] of 100%.

On to `O=S(=O)(NCc1ccnc2ccccc12)c1ccc(Cc2ccccc2F)cc1` [Compound 91], for which the “% Efficacy” value with Haemonchus contortus [1] was 93%. As to `O=S(=O)(NCc1ccnc2ccccc12)c1cccc(Cc2ccc(F)cc2)c1` [Compound 92], the “% Efficacy” value in the assay with Haemonchus contortus [1] is 73%. In the assay on Haemonchus contortus [2], the mortality at 2 ppm was 100%. `O=S(=O)(NCc1ccnc2ccccc12)c1ccc(Cc2ccc(F)cc2F)s1` [Compound 99] had a mortality at 2 ppm in the assay on Haemonchus contortus [2] of 100%.
